Where a chain is given by its changes, count along the chain named. Several values for one entry are separate records, joined by “and”; a condition that tells them apart may be missing. Identical values can stand only once. Like-named read-outs stand apart in the source and are kept apart here.
Legend:
Type in all cases: cell-based
hTA1 = molecular target: T1, hTA1 (Homo sapiens, UniProt Q96RJ0); assay: GloSensor cAMP accumulation assay, concentration response, wild-type hTA1 in transfected HEK293T cells; details: for Emax: HEK-293T; for Dose-response curves for asenapine vs endogenous trace amines: log[Compound], replicate values (N=2);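 for all read-outs here: luminescence read after 30 min compound exposure at room temperature in cells preloaded with D-Luciferin, reflecting Gs-driven cAMP rise, efficacy scaled to the maximal β-PEA response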
T1 construct: expressed in transfected cells; host or cells: HEK293T
T1 sequence (Q96RJ0 1-339): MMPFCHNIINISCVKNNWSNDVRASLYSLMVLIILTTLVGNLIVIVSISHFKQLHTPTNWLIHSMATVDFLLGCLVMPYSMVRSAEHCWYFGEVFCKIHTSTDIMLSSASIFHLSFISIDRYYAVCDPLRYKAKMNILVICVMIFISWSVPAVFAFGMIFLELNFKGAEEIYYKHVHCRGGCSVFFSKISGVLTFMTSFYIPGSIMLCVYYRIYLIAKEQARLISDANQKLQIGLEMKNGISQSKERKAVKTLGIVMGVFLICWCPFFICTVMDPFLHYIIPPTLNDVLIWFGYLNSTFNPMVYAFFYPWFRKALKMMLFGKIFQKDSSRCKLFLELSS

hTA1 C88S = molecular target: T2, hTA1 C88S (Homo sapiens, UniProt Q96RJ0, C88S); assay: GloSensor cAMP accumulation assay, C88S mutant; details: C88S
T2 construct: expressed in transfected cells; host or cells: HEK293T
T2 sequence (Q96RJ0 1-339 C88S): T1 sequence (Q96RJ0 1-339) with C88S

hTA1 C88/178S = molecular target: T3, hTA1 C88/178S (Homo sapiens, UniProt Q96RJ0, C178S/C88S); assay: GloSensor cAMP accumulation assay, C88S/C178S double mutant; details: for Normalized Luminescence Counts (N=2): log[Compound], single replicate values
T3 construct: expressed in transfected cells; host or cells: HEK293T
T3 sequence (Q96RJ0 1-339 C88S/C178S): T1 sequence (Q96RJ0 1-339) with C88S, C178S

hTA1 T271A = molecular target: T4, hTA1 T271A (Homo sapiens, UniProt Q96RJ0, T271A); assay: GloSensor cAMP accumulation assay, T271A mutant
T4 construct: expressed in transfected cells; host or cells: HEK293T
T4 sequence (Q96RJ0 1-339 T271A): T1 sequence (Q96RJ0 1-339) with T271A

[1] = C88S, C178S, each row is one independent experiment, 3 replicates

`NCCc1ccc(O)cc1` [TYR, tyramine] was tested, and the Emax (hTA1) was 99%, the Emax (hTA1; WT hTA1, β-PEA = 100, average of the two experiments, read-out: Emax values, Avg) was 99% and the Emax (hTA1; WT hTA1, β-PEA = 100, each line an independent experiment, 3 replicates, read-out: Emax values (Mean)) was 98.7%. For the same compound, the “Emax values, Mean” value (hTA1; WT hTA1, β-PEA = 100, each line an independent experiment, 3 replicates) was 99.2414, the “Emax values, Avg” value (hTA1; WT, average of the experiments, β-PEA = 100) was 98.98 and the “Emax values, Avg” value (hTA1; WT, average of the two experiments) was 98.98. For the same compound, the “Emax values, Mean” value (hTA1; WT, mean of each independent experiment (3 replicates), β-PEA = 100) was 98.7253 and 99.2414, the “Emax values, Mean” value (hTA1; WT, single experiments (3 replicates each), β-PEA = 100) was 98.7253 and 99.2414 and the “Dose-response curves for asenapine vs endogenous trace amines” value (hTA1; M = -5) was 87.8798 and 96.6135 and 100.84 and 85.1295 and 110.033 and 96.1011. For the same compound, the “Dose-response curves for asenapine vs endogenous trace amines” value (hTA1; M = -5.522) was 78.3008 and 89.6171 and 91.9649 and 78.2527 and 93.1412 and 82.5257, the “Dose-response curves for asenapine vs endogenous trace amines” value (hTA1; M = -6) was 74.2157 and 61.4437 and 71.9149 and 59.67 and 72.4888 and 65.1224 and the “Dose-response curves for asenapine vs endogenous trace amines” value (hTA1; M = -6.522) was 42.6615 and 39.1398 and 48.3901 and 34.5221 and 51.4135 and 39.5962. For the same compound, the “Dose-response curves for asenapine vs endogenous trace amines” value (hTA1; M = -7) was 13.8777 and 16.742 and 21.1088 and 17.6752 and 31.7847 and 17.7865, the “Dose-response curves for asenapine vs endogenous trace amines” value (hTA1; M = -7.522) was 4.58 and 3.454 and 4.252 and 2.943 and 7.126 and 3.989 and the “Dose-response curves for asenapine vs endogenous trace amines” value (hTA1; M = -8) was 2.796 and 3.5 and 3.313 and 3.588 and 4.545 and 4.122. For the same compound, the “Dose-response curves for asenapine vs endogenous trace amines” value (hTA1; M = -8.522) was 0.3075 and 0.6831 and 1.294 and -0.5515 and 0.6503 and 0.4723, the “Dose-response curves for asenapine vs endogenous trace amines” value (hTA1; M = -9) was -0.6786 and 0.2605 and 0.02574 and -1.508 and -0.9298 and -0.774 and the “Dose-response curves for asenapine vs endogenous trace amines” value (hTA1; M = -9.522) was -0.5847 and -0.9603 and -0.3499 and -2.02 and -0.7963 and -1.241. The “Dose-response curves for asenapine vs endogenous trace amines” value (hTA1; M = -10) was -0.1151 and -1.148 and -0.9134 and -1.041 and -0.1064 and -1.063, the “Dose-response curves for asenapine vs endogenous trace amines” value (hTA1; M = -10.522) was -0.3029 and -1.148 and -1.43 and -1.798 and -1.019 and -1.397 and the “Dose-response curves for asenapine vs endogenous trace amines” value (hTA1; M = -11) was -0.209 (3×) and -0.6182 and 0.361 and -0.7518. For the same compound, the “Dose-response curves for asenapine vs endogenous trace amines” value (hTA1; M = -11.522) was 0.0727 and -0.06817 and 0.2605 and -0.7073 and 0.1607 and -0.4179, the “Dose-response curves for asenapine vs endogenous trace amines” value (hTA1; M = -12) was 0.0727 and 1.247 and 0.777 and -1.086 and -0.774 (2×) and the “Dose-response curves for asenapine vs endogenous trace amines” value (hTA1; M = -12.522) was 0.4483 and 0.1197 and 0.3544 and -2.02 and -1.575 and -1.33. For the same compound, the EC50 (hTA1; pEC50 values (Mean), WT hTA1, each line an independent experiment, 3 replicates, Figure 2B source data) was 414 nM and 416 nM, the EC50 (hTA1; pEC50 ± SEM, wt hTA1, HEK293T, n=3) was 417 nM and the EC50 (hTA1; wt hTA1, HEK293T, n=3, read-out: EC50) was 415 nM. For the same compound, the Emax values (hTA1 C88S; Mean of fit per experiment) was 100.851, the Emax (hTA1 C88S; Mean of fit per experiment, read-out: Emax values) was 118% and the EC50 (hTA1 C88S; Mean of fit per experiment, read-out: pEC50 values (converted)) was 442 nM and 317 nM. It also gave an EC50 (hTA1 C88S; n=2, read-out: EC50) of 375 nM, an Emax (hTA1 C88S; n=2, read-out: Span ± SEM (Emax normalized to β-PEA)) of 109 ± 8.4% and an EC50 (hTA1 C88/178S; C88/178S, n=2, read-out: EC50) of 516 nM. For the same compound, the “ΔEmax values (each mutant value - WT average), Mean” value (hTA1 C88/178S; [1]) was 5.171 and -4.429, the “ΔpEC50 values (each mutant value - WT average), Mean” value (hTA1 C88/178S; [1]) was -0.1652 and -0.02439 and the EC50 (hTA1 C88/178S; C88S, C178S, each row is one independent experiment, 3 replicates, read-out: pEC50 values, Mean (converted)) was 607 nM and 439 nM. For the same compound, the “Normalized Luminescence Counts (N=2)” value (hTA1 C88/178S; C88S, C178S, M = -5) was 80.5108 and 118.73 and 96.3411 and 73.7167 and 119.633 and 101.508, the “Normalized Luminescence Counts (N=2)” value (hTA1 C88/178S; C88S, C178S, M = -5.522) was 83.5638 and 94.9277 and 84.0161 and 70.847 and 65.5606 and 81.5707 and the “Normalized Luminescence Counts (N=2)” value (hTA1 C88/178S; C88S, C178S, M = -6) was 61.2318 and 70.3907 and 58.4615 and 74.6229 and 67.8262 and 50.6077. For the same compound, the “Normalized Luminescence Counts (N=2)” value (hTA1 C88/178S; C88S, C178S, M = -6.522) was 35.2248 and 33.0764 and 35.0552 and 41.5453 and 51.665 and 30.8216, the “Normalized Luminescence Counts (N=2)” value (hTA1 C88/178S; C88S, C178S, M = -7) was 17.4722 and 16.0588 and 18.7726 and 21.6082 and 20.853 and 15.4156 and the “Normalized Luminescence Counts (N=2)” value (hTA1 C88/178S; C88S, C178S, M = -7.522) was 4.582 and 7.069 and 6.674 and 4.541 and 4.692 and 3.332. The “Normalized Luminescence Counts (N=2)” value (hTA1 C88/178S; C88S, C178S, M = -8) was 0.3416 and 1.077 and 0.3981 and 2.124 and 2.577 and 4.239, the “Normalized Luminescence Counts (N=2)” value (hTA1 C88/178S; C88S, C178S, M = -8.522) was 0.2285 and 0.4547 and 1.1331 and 0.9158 and 0.6137 and 2.577 and the “Normalized Luminescence Counts (N=2)” value (hTA1 C88/178S; C88S, C178S, M = -9) was -0.6195 and -0.1107 and 0.3416 and -1.501 and -1.35 and 3.6345. For the same compound, the “Normalized Luminescence Counts (N=2)” value (hTA1 C88/178S; C88S, C178S, M = -9.522) was -0.5065 and -0.563 and -0.05417 and -0.8967 (2×) and -1.652, the “Normalized Luminescence Counts (N=2)” value (hTA1 C88/178S; C88S, C178S, M = -10) was -0.1107 and -0.9588 (2×) and -1.35 and -0.4436 and -0.1415 and the “Normalized Luminescence Counts (N=2)” value (hTA1 C88/178S; C88S, C178S, M = -10.522) was -0.6195 and -0.1672 and 0.0589 and -1.954 and -1.048 and 1.067. The “Normalized Luminescence Counts (N=2)” value (hTA1 C88/178S; C88S, C178S, M = -11) was -0.05417 and 0.5677 and 0.3981 and -1.652 and -0.8967 and 0.7648, the “Normalized Luminescence Counts (N=2)” value (hTA1 C88/178S; C88S, C178S, M = -11.522) was 0.7373 and 0.9635 and 0.285 and -0.8967 (2×) and 0.1606 and the “Normalized Luminescence Counts (N=2)” value (hTA1 C88/178S; C88S, C178S, M = -12) was -0.563 and 1.02 and 0.7939 and -0.1415 and -1.048 and 0.7648. The “Normalized Luminescence Counts (N=2)” value (hTA1 C88/178S; C88S, C178S, M = -12.522) was 0.2285 and 0.8504 and 0.3981 and -0.8967 and -0.4436 and -1.199, the “Emax values, Mean” value (hTA1 C88/178S; C88S, C178S, normalized (β-PEA = 100), each row is one independent experiment, 3 replicates) was 104.155 and 94.5547 and the Emax (hTA1 C88/178S; read-out: Span ± SEM (Emax normalized to β-PEA)) was 99.3 ± 4.8%. The “reduction in potency vs wild type” value (hTA1 T271A; T271A) was “about 10 fold”, the EC50 (hTA1 T271A; T271A mutant, Figure 5B, each row one independent experiment (3 replicates), read-out: pEC50 values, Mean (converted)) was 7630 nM and 3080 nM and the “Emax values, Mean” value (hTA1 T271A; T271A mutant, Figure 5B, β-PEA = 100, each row one independent experiment (3 replicates)) was 138.16 and 109.079. The EC50 (hTA1 T271A; T271A, n=2, read-out: EC50) was 4850 nM and the Emax (hTA1 T271A; T271A, n=2, read-out: Span ± SEM (Emax normalized to β-PEA)) was 124%.

— PMC10762035, “Molecular basis of human trace amine-associated receptor 1 activation” (Nature Communications, 2024)
